{
  "source": "patent US8258186B2",
  "about": "“Pharmaceutical for oral delivery comprising MGBG” (Pathologica, LLC, priority 2009, dated 2012)",
  "key": {"[1]": {"assay": "in vivo", "design": "species or system beagle dogs", "conditions": "male, beagle, dog", "method": "Two groups of three male beagle dogs weighing 9.0-10.7 kg and aged 8-30 months were fasted overnight before being administered the test article, MGBG, as either a single bolus intravenous dose of 1 mg/kg (Group 1) or as a single oral gavage dose of 10 mg/kg (Group 2). Dose formulation analysis verified administered dose solutions as within 17% of targeted concentrations of 1 and 10 mg/kg for Groups 1 and 2, respectively.\nBlood samples (approximately 2.0 mL) were collected for plasma MGBG concentration measurement from all intravenously dosed animals prior to dosing and at approximately T=0.083 (5 min), 0.25 (15 min), 0.5 (30 min), 1, 2, 4, 8, and 24 hours after dosing. A similar procedure was used with orally dosed animals was used, except that collection took place at T=1, 2, 4, 8, 12, 24, and 36 hours after dosing. The samples were centrifuged under refrigerated conditions following completion of sample collection at each interval. The resulting plasma was separated and stored frozen at approximately −70° C. until analysis."}, "[2]": {"tested_on": "carrageenan air pouch inflammation", "assay": "Carrageenan air pouch model", "assay_type": "in vivo, Swiss Webster mice", "conditions": "mice, MGBG PO BID 3, 10, 30 mg/kg/dose", "description": "Injection of air subcutaneously will induce the formation of a connective tissue cavity lined with cells that resemble and function like a synovial lining. This method is commonly known as the Air Pouch Model and is a useful animal model of inflammation that can be generated in a relatively short period of time. The air pouch may be created by subcutaneous (SQ) injection of a volume of sterile air in the dorsal neck region. The model may be used to test the efficacy and potency of compounds such as polyamine analogues and polyamine biosynthesis inhibitors such as MGBG in reducing various cellular and biochemical indicators of inflammation when administered as an oral (PO) gavage administration.\nAnimals, compounds, and dosing. Healthy male Swiss Webster mice of 7-9 weeks of age and at least 30 g in weight were used. Animals were divided into six groups of thirty. Each group was administered 6 mL of air subcutaneously as described below on days 4 and 7. […] Tolerance of test compound dosing was monitored in mice by daily visual inspections of physical and behavioral changes, such as examined changes in body posture, hair coat, activity, excreta, etc., and dosing reevaluated upon negative findings. […]\nExudate, Plasma, and Histological Collection. The systemic exposure of the test article was evaluated as follows. Plasma samples were prepared and evaluated as follows. […]"}, "[3]": {"assay": "Rhesus macaque single-dose pharmacokinetics", "assay_type": "in vivo, rhesus monkeys", "method": "Two groups of three male rhesus monkeys were fasted overnight before being administered the test article, MGBG, as either a single bolus intravenous dose of 1 mg/kg (Group 1) or as a single oral gavage dose of 10 mg/kg (Group 2). Dose formulation analysis verified administered dose solutions as within 14% of targeted concentrations of 1 and 10 mg/kg for Groups 1 and 2, respectively.\nBlood samples were collected into tubes containing lithium heparin from the femoral vein/artery (approximately 1.0 mL) for plasma MGBG concentration measurement from all intravenously dosed animals prior to dosing and at approximately T=0.083 (5 min), 0.25 (15 min), 0.5 (30 min), 1, 2, 4, 8, and 24 hours after dosing. Blood samples for plasma MGBG concentration measurement were collected from all orally dosed animals prior to dosing at approximately T=1, 2, 4, 8, 12, 24, and 36 hours after dosing. Food was also withheld through the first four hours of blood sample collection.\nThe samples were centrifuged under refrigerated conditions following completion of sample collection at each interval. The resulting plasma was separated and stored frozen at approximately −70° C. until analysis.\nPK analysis was performed on the individual plasma concentration-time profiles for MGBG using the WinNonlin non-compartmental approach (linear trapezoidal rule for AUC calculations). Nominal dose values and sampling times were used for calculations. All MGBG plasma concentration measurements reported as BQL (<2.51 ng/mL) were set equal to zero for the purpose of analysis. Following IV and PO administration of MGBG, plasma PK disposition parameters were calculated using the WinNonlin default selection criteria for the selection of the Lambda Z.\nConsequently, a model-dependent two-compartmental analysis was used to calculate bioavailability."}, "[4]": {"conditions": "male, rhesus monkey, plasma, single bolus IV 1 mg/kg, mean"}, "[5]": {"conditions": "male, rhesus monkey, plasma, single oral gavage 10 mg/kg, mean"}, "[6]": {"conditions": "male, rhesus monkey, single bolus IV 1 mg/kg, plasma, mean"}, "[7]": {"conditions": "male, rhesus monkey, single oral gavage 10 mg/kg, plasma, mean"}},
  "data": [
    {"molecule": "CC(/C=N/NC(=N)N)=N\\NC(=N)N", "note": "[MGBG, 1,1′[methylethanediylidene]dinitrilodiguanidine]", "values": [
      {"measurement": "AUC", "setting": "[1]; iv, 1 mg/kg", "result": 1410, "unit": "ng·h/mL"},
      {"measurement": "Clobs", "setting": "[1]; iv, 1 mg/kg", "result": 13.7, "unit": "mL/min/kg"},
      {"measurement": "Cmax", "setting": "[1]; iv, 1 mg/kg", "result": 1180, "unit": "ng/mL"},
      {"measurement": "Tmax", "setting": "[1]; iv, 1 mg/kg", "result": 0.083, "unit": "h"},
      {"measurement": "VSSobs", "setting": "[1]; iv, 1 mg/kg", "result": 14.6, "unit": "L/kg"},
      {"measurement": "half-life", "setting": "[1]; iv, 1 mg/kg", "result": 15.8, "unit": "h"},
      {"measurement": "AUC", "setting": "[1]; po, 10 mg/kg", "result": 6290, "unit": "ng·h/mL"},
      {"measurement": "Clobs", "setting": "[1]; po, 10 mg/kg", "result": 8.29, "unit": "mL/min/kg"},
      {"measurement": "Cmax", "setting": "[1]; po, 10 mg/kg", "result": 616, "unit": "ng/mL"},
      {"measurement": "Tmax", "setting": "[1]; po, 10 mg/kg", "result": 1, "unit": "h"},
      {"measurement": "bioavailability", "setting": "[1]; po, 10 mg/kg", "result": 49, "unit": "%"},
      {"measurement": "half-life", "setting": "[1]; po, 10 mg/kg", "result": 15.5, "unit": "h"},
      {"measurement": "efficacy, changes relative to control indicative of reduced inflammation", "setting": "[2]", "result": "efficacious"},
      {"measurement": "systemic plasma MGBG exposure", "setting": "[3]; following IV and PO administration", "result": "observed at all collected plasma time points"},
      {"measurement": "bioavailability", "setting": "[3]; male, rhesus monkey, plasma, oral 10 mg/kg vs IV 1 mg/kg, two-compartmental analysis used", "result": 35, "unit": "%"},
      {"measurement": "Tmax", "setting": "[3]; [4]", "result": 0.139, "unit": "h"},
      {"measurement": "half-life", "setting": "[3]; [4]", "result": 30.8, "unit": "h"},
      {"measurement": "Tmax", "setting": "[3]; [5]", "result": 3.33, "unit": "h"},
      {"measurement": "half-life", "setting": "[3]; [5]", "result": 24.2, "unit": "h"},
      {"measurement": "AUC", "setting": "[3]; [6]", "result": 1660, "unit": "ng·h/mL"},
      {"measurement": "Cmax", "setting": "[3]; [6]", "result": 757, "unit": "ng/mL"},
      {"measurement": "AUC", "setting": "[3]; [7]", "result": 4240, "unit": "ng·h/mL"},
      {"measurement": "Cmax", "setting": "[3]; [7]", "result": 192, "unit": "ng/mL"},
      {"measurement": "Clobs", "setting": "[3]; single bolus IV 1 mg/kg, mean", "result": 13.7, "unit": "mL/min/kg"},
      {"measurement": "VSSobs", "setting": "[3]; single bolus IV 1 mg/kg, mean", "result": 13.2, "unit": "L/kg"},
      {"measurement": "Clobs", "setting": "[3]; single oral gavage 10 mg/kg, mean", "result": 6.63, "unit": "mL/min/kg"}
    ]}
  ]
}
